The NIST ThermoML archive (doi:10.1016/j.jct.2013.10.034)
± gives the expanded uncertainty stated by the source.

Experiments:
[1] = Liquid; for viscosity / mass density: 100 kPa; for viscosity: Falling or rolling sphere viscometry; for mass density: Vibrating tube method; for vapor or sublimation pressure: Ebulliometric method (Recirculating still)
[2] = xn = mol fraction of the nth substance listed; settings: 100 kPa, Liquid, x2 = 0; for viscosity: Falling or rolling sphere viscometry; for mass density: Vibrating tube method

Row | Structure (SMILES) | viscosity ([1]; 298.15 K) [mPa·s] | mass density ([1]; 298.15 K) [kg/m3] | viscosity ([1]; 303.15 K) [mPa·s] | mass density ([1]; 303.15 K) [kg/m3] | viscosity ([1]; 308.15 K) [mPa·s] | mass density ([1]; 308.15 K) [kg/m3] | viscosity ([1]; 313.15 K) [mPa·s] | mass density ([1]; 313.15 K) [kg/m3] | viscosity ([1]; 318.15 K) [mPa·s] | mass density ([1]; 318.15 K) [kg/m3] | viscosity ([1]; 323.15 K) [mPa·s] | mass density ([1]; 323.15 K) [kg/m3] | viscosity ([1]; 328.15 K) [mPa·s] | mass density ([1]; 328.15 K) [kg/m3] | viscosity ([1]; 333.15 K) [mPa·s] | mass density ([1]; 333.15 K) [kg/m3] | viscosity ([1]; 338.15 K) [mPa·s] | mass density ([1]; 338.15 K) [kg/m3] | viscosity ([1]; 343.15 K) [mPa·s] | mass density ([1]; 343.15 K) [kg/m3] | other results
1 | CCCC[N+]1(C)CCCCC1.N#C[N-]C#N [1-butyl-1-methylpiperidinium dicyanamide] | 123.3 ± 20 | 1016.13 ± 0.5 | 92.97 ± 15 | 1012.98 ± 0.5 | 75.58 ± 12 | 1010.65 ± 0.49 | 60.93 ± 9.8 | 1007.92 ± 0.49 | 49.79 ± 8 | 1005.2 ± 0.49 | 41.31 ± 6.6 | 1002.47 ± 0.48 | 34.72 ± 5.6 | 999.77 ± 0.48 | 29.45 ± 4.7 | 997.08 ± 0.48 | 23.31 ± 3.7 | 994.39 ± 0.48 | 21.98 ± 3.5 | 991.72 ± 0.48 | –
2 | CCCC[N+]1(C)CCCC1.N#CN=C=[N-] [1-butyl-1-methylpyrrolidinium dicyanamide] | 34.74 ± 5.6 | 1019.2 ± 1.4 | 29.33 ± 4.7 | 1016.38 ± 1.4 | 25.09 ± 4 | 1013.58 ± 1.3 | 21.7 ± 3.5 | 1010.79 ± 1.3 | 18.95 ± 3 | 1008 ± 1.3 | 16.72 ± 2.7 | 1005.23 ± 1.3 | 14.84 ± 2.4 | 1002.48 ± 1.3 | 13.28 ± 2.1 | 999.74 ± 1.3 | 11.96 ± 1.9 | 997 ± 1.3 | 10.82 ± 1.7 | 994.28 ± 1.3 | –
3 | O [water] | 0.89 ± 0.14 | – | 0.808 ± 0.13 | – | 0.74 ± 0.12 | – | 0.681 ± 0.11 | 992.15 ± 0.2 | 0.63 ± 0.1 | 990.14 ± 0.2 | 0.593 ± 0.095 | 987.93 ± 0.2 | 0.56 ± 0.09 | 985.61 ± 0.2 | 0.528 ± 0.085 | 983.17 ± 0.2 | 0.5 ± 0.08 | 980.3 ± 0.2 | 0.473 ± 0.076 | 978.1 ± 0.2 | vapor or sublimation pressure ([1]; 328.15 K): 15.8 ± 0.5 kPa; vapor or sublimation pressure ([1]; 338.15 K): 25.1 ± 0.5 kPa; vapor or sublimation pressure ([1]; 348.15 K): 38.6 ± 0.5 kPa; vapor or sublimation pressure ([1]; 358.15 K): 57.9 ± 0.5 kPa; vapor or sublimation pressure ([1]; 368.15 K): 84.4 ± 0.5 kPa
4 | O [water] + CCCC[N+]1(C)CCCC1.N#CN=C=[N-] | – | – | – | – | – | – | – | – | – | – | – | – | – | – | – | – | – | – | – | – | viscosity ([2]; 298.15 K): 0.89 ± 0.14 mPa·s; viscosity ([2]; 303.15 K): 0.808 ± 0.13 mPa·s; viscosity ([2]; 308.15 K): 0.74 ± 0.12 mPa·s; viscosity ([2]; 313.15 K): 0.681 ± 0.11 mPa·s; mass density ([2]; 313.15 K): 992.15 ± 0.2 kg/m3; viscosity ([2]; 318.15 K): 0.63 ± 0.1 mPa·s; mass density ([2]; 318.15 K): 990.14 ± 0.2 kg/m3; viscosity ([2]; 323.15 K): 0.593 ± 0.095 mPa·s; mass density ([2]; 323.15 K): 987.93 ± 0.2 kg/m3; viscosity ([2]; 328.15 K): 0.56 ± 0.09 mPa·s; mass density ([2]; 328.15 K): 985.61 ± 0.2 kg/m3; viscosity ([2]; 333.15 K): 0.528 ± 0.085 mPa·s; mass density ([2]; 333.15 K): 983.17 ± 0.2 kg/m3; viscosity ([2]; 338.15 K): 0.5 ± 0.08 mPa·s; mass density ([2]; 338.15 K): 980.3 ± 0.2 kg/m3; viscosity ([2]; 343.15 K): 0.473 ± 0.076 mPa·s; mass density ([2]; 343.15 K): 978.1 ± 0.2 kg/m3
5 | O [water] + CCCC[N+]1(C)CCCCC1.N#C[N-]C#N | – | – | – | – | – | – | – | – | – | – | – | – | – | – | – | – | – | – | – | – | viscosity ([2]; 298.15 K): 0.89 ± 0.14 mPa·s; viscosity ([2]; 303.15 K): 0.808 ± 0.13 mPa·s; viscosity ([2]; 308.15 K): 0.74 ± 0.12 mPa·s; viscosity ([2]; 313.15 K): 0.681 ± 0.11 mPa·s; mass density ([2]; 313.15 K): 992.15 ± 0.2 kg/m3; viscosity ([2]; 318.15 K): 0.63 ± 0.1 mPa·s; mass density ([2]; 318.15 K): 990.14 ± 0.2 kg/m3; viscosity ([2]; 323.15 K): 0.593 ± 0.095 mPa·s; mass density ([2]; 323.15 K): 987.93 ± 0.2 kg/m3; viscosity ([2]; 328.15 K): 0.56 ± 0.09 mPa·s; mass density ([2]; 328.15 K): 985.61 ± 0.2 kg/m3; viscosity ([2]; 333.15 K): 0.528 ± 0.085 mPa·s; mass density ([2]; 333.15 K): 983.17 ± 0.2 kg/m3; viscosity ([2]; 338.15 K): 0.5 ± 0.08 mPa·s; mass density ([2]; 338.15 K): 980.3 ± 0.2 kg/m3; viscosity ([2]; 343.15 K): 0.473 ± 0.076 mPa·s; mass density ([2]; 343.15 K): 978.1 ± 0.2 kg/m3
